In brackets after ≈: the same amount, converted by molar mass. Several values for one entry are separate records, joined by “and”; a condition that tells them apart may be missing. Equal entries are not always repeated. Entries after “also recorded” stand apart in the source; their conditions may differ. Where two headings read alike, the source gives them in different places.
Assays:
hOCT2 [1] = target: T1, hOCT2 (Homo sapiens, UniProt O15244); test: Inhibition of hOCT2-mediated 14C-metformin uptake in transfected HEK293 cells; format: cell-based; parameters: expressed in transfected cells; host or cells: HEK293 (stably transfected)
T1 sequence (O15244 1-555): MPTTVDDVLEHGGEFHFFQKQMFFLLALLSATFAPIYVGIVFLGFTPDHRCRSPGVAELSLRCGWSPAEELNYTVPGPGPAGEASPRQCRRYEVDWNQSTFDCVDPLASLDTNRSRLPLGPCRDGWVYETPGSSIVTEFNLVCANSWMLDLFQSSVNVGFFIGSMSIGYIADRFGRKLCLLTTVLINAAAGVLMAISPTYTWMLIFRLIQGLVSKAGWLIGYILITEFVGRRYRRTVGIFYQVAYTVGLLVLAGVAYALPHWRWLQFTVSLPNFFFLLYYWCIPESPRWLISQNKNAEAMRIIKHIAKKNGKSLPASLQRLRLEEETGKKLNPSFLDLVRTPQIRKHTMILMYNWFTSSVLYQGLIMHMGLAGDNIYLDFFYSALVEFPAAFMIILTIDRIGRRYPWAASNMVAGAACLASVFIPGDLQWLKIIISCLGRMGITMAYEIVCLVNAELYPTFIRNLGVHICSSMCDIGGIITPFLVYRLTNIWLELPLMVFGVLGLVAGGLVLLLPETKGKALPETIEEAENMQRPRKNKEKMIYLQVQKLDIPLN
Description: (§1) The uptake assays were performed as previously described in 24-well plates. […] After incubation, the uptake was stopped by aspirating the reaction mixture and washing the cells three times with 0.4 mL ice-cold PBS buffer. Cells were then solubilized with 0.6 mL of 1 N NaOH, overnight. The whole content of each well (0.6 mL) was transferred to a scintillation vial (Perkin Elmer). The radio-labelled amount was determined by liquid scintillation counting.
(§2) All inhibition experiments were conducted on at least two separate days in triplicate.
(§3) For screening experiments, cis-inhibition was carried out in duplicate by measuring the uptake of the labeled probe substrate in the absence and presence of 10 µM or 100 µM of the respective pesticide or drug. […] Inhibitory effects in percent were calculated from net-uptake. […]

hOCT2 [2] = target: T1, hOCT2; parameters: expressed in transfected cells; host or cells: HEK293 (stably transfected); details: cited from earlier work
mOct2 [3] = target: T2, mOct2 (Mus musculus, UniProt O70577); test: Inhibition of mOct2-mediated 14C-metformin uptake in transfected HEK293 cells; format: cell-based; parameters: expressed in transfected cells; host or cells: HEK293 (stably transfected)
T2 sequence (O70577 1-553): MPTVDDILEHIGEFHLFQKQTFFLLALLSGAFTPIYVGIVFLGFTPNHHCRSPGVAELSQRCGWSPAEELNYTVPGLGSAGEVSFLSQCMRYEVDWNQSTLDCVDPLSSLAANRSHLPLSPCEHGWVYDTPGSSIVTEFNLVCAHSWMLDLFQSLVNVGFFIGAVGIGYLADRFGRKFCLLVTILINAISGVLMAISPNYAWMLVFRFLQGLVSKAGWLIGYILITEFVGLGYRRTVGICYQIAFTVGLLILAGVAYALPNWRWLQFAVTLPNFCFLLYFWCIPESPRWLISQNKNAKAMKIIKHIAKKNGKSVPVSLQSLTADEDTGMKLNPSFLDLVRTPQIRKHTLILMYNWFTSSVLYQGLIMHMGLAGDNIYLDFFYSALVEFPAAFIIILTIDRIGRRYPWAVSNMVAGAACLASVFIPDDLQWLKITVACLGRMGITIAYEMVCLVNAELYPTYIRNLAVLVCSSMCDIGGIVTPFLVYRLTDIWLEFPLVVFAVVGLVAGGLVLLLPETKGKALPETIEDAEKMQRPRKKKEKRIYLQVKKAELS
Description: as §1, §2, §3

MATEs = test system: MATEs; parameters: method as in ref 33 (Wittwer et al.); details: ref 33 (Wittwer et al.); read-out: IC50, MATEs-mediated ASP+ uptake; cited from earlier work
mOct2 [4] = target: T2, mOct2; test: Inhibition of mOct2-mediated 3H-MPP uptake in transfected HEK293 cells; format: cell-based; parameters: expressed in transfected cells; host or cells: HEK293 (stably transfected)
Description: (§4) With cDNA of hOCT2 (GeneBank: accession number: NM_003058.3) or mOct2 (NM_013667.2), stably overexpressing HEK293 cells were used for the experiments and empty vector-transfected HEK cells were used as control-HEK cells.
(§5) The uptake assays were performed as previously described in 24-well plates. Therefore, culture medium was aspirated, and each well was rinsed three times with 0.5 mL incubation buffer (HBSS supplemented with 20 mM HEPES, pH 7.4) and then incubated in 200 µL dosing solution containing ^3H-MPP or ^14C-metformin and the test compound. After incubation, the uptake was stopped by aspirating the reaction mixture and washing the cells three times with 0.4 mL ice-cold PBS buffer. Cells were then solubilized with 0.6 mL of 1 N NaOH, overnight. The whole content of each well (0.6 mL) was transferred to a scintillation vial (Perkin Elmer). The radio-labelled amount was determined by liquid scintillation counting.
(§6) […]. All inhibition experiments were conducted on at least two separate days in triplicate.
(§7) The Km and Vmax values were obtained using SigmaPlot version 13 by fitting the Michaelis–Menten equation V = Vmax*[S]/(Km + [S]), where V refers to the rate of substrate transport, Vmax refers to the maximum rate of substrate transport, [S] refers to the concentration of substrate, and Km is defined as the concentration of substrate at the half-maximal transport rate.

hOCT2 [5] = target: T1, hOCT2; test: Inhibition of hOCT2-mediated 3H-MPP uptake in transfected HEK293 cells; format: cell-based; parameters: expressed in transfected cells; host or cells: HEK293 (stably transfected)
Description: as §4, §5, §6, §7

hOCT2 [6] = target: T1, hOCT2; parameters: method as in PMID 9260930; details: OCT2-overexpressing oocytes (procainamid); read-out: IC50, hOCT2-mediated TEA uptake; cited from earlier work
hOCT2 [7] = target: T1, hOCT2; parameters: expressed in transfected cells; host or cells: HEK293 (stably transfected); details: read-out: IC50, MPP uptake in hOCT2-HEK293 cells; HEK293; ref 28 (Hayer-Zillgen et al. 2002); cited from earlier work
hOCT2 [8] = target: T1, hOCT2; details: MPP higher affinity than metformin
Description: as §1
(§8) All experiments were conducted on two separate days in triplicate.
(§9) The cellular protein amounts were analyzed in parallel to the transport experiments by the Bradford method as previously described.
as §7

mOct2 [9] = target: T2, mOct2; details: MPP higher affinity than metformin
Description: as §1, §8, §9, §7

[10] = Highest soluble concentration in assay buffer (determined visually); format: physicochemical; details: assay buffer (HBSS/HEPES), aqueous buffer, HBSS/HEPES pH 7.4
[11] = substrate: C[n+]1ccc(-c2ccccc2)cc1; test: cells, lysate or membranes; details: other: substrate, metformin 2 min, MPP 1 min, 37 °C, pH 7.4
[12] = HEK293, 10 µM test compound; 1 µM [14C]metformin, 2 min, HEK293; negative = stimulation; read-out: Inhibitory Effects (%) hOCT2 10 µM Mean
[13] = HEK293, 100 µM test compound; 1 µM [14C]metformin, 2 min, HEK293; negative = stimulation; read-out: Inhibitory Effects (%) hOCT2 100 µM Mean
[14] = HEK293; read-out: Inhibitory Effects (%) mOct2 10 µM Mean
[15] = HEK293; read-out: Inhibitory Effects (%) mOct2 100 µM Mean
[16] = 10 µM test compound; 1 µM [14C]metformin, 2 min, HEK293; negative = stimulation
[17] = 100 µM test compound; 1 µM [14C]metformin, 2 min, HEK293; negative = stimulation
[18] = up to 100 µM (highest soluble concentration)

C[n+]1ccc(-c2cc[n+](C)cc2)cc1 [Paraquat]
inhibition at 10 µM (hOCT2 [1]; HEK293, read-out: Inhibitory Effects (%) hOCT2 10 µM Mean): -15% | inhibition at 100 µM (hOCT2 [1]; HEK293, read-out: Inhibitory Effects (%) hOCT2 100 µM Mean): -52% | Km (hOCT2 [2]; read-out: Km, concentration dependent uptake by human OCT2): 114 µM | inhibition at 10 µM (mOct2 [3]; HEK293, read-out: Inhibitory Effects (%) mOct2 10 µM Mean): -9% | inhibition at 100 µM (mOct2 [3]; HEK293, read-out: Inhibitory Effects (%) mOct2 100 µM Mean): -48%

CNC(=C[N+](=O)[O-])NCCSCc1ccc(CN(C)C)o1 [Ranitidine]
inhibition at 10 µM (hOCT2 [1]; [12]): -43% | inhibition at 100 µM (hOCT2 [1]; [13]): -33% | Km (hOCT2 [2]; ref 36 (Tahara et al.), read-out: Km, substrate of hOCT2): 65.2 µM | inhibition at 10 µM (mOct2 [3]; [14]): -37% | inhibition at 100 µM (mOct2 [3]; [15]): -16%

CC(C)c1nc(CN(C)C(=O)N[C@H](C(=O)N[C@@H](Cc2ccccc2)C[C@H](O)[C@H](Cc2ccccc2)NC(=O)OCc2cncs2)C(C)C)cs1 [Ritonavir]
inhibition at 10 µM (hOCT2 [1]; [12]): -10% | inhibition at 100 µM (hOCT2 [1]; [13]): -38% | IC50 (MATEs): 4400 nM | inhibition at 10 µM (mOct2 [3]; [14]): 1% | inhibition at 100 µM (mOct2 [3]; [15]): -8%

CCN1/C(=C/c2ccc3ccccc3[n+]2CC)C=Cc2ccccc21.[I-] [Decynium22]
Fold higher inhibitory potential on metformin uptake compared to MPP uptake, hOCT2 (hOCT2 [1]): 7.2 fold | Inhibitory Effects (%) hOCT2 10 µM Mean (hOCT2 [1]; [16]): 67% | Inhibitory Effects (%) hOCT2 100 µM Mean (hOCT2 [1]; [17]): 96% | IC50 (hOCT2 [1]; read-out: IC50, hOCT2-mediated metformin uptake; control inhibitor; 350 µM metformin; 0.1-100 µM inhibitor): 2200 nM | IC50 (mOct2 [4]; read-out: IC50, mOct2-mediated MPP uptake, control inhibitor, MPP at its Km, 0.1-100 µM inhibitor): 6900 nM | Fold higher IC50 for hOCT2 than for mOct2 (hOCT2 [5]; MPP as substrate): 2 fold and 2.3 fold | IC50 (hOCT2 [5]; read-out: IC50, hOCT2-mediated MPP uptake, control inhibitor, MPP at its Km, 0.1-100 µM inhibitor): 16000 nM | IC50 (hOCT2 [6]): 100 nM | Fold higher inhibitory potential on metformin uptake compared to MPP uptake, mOct2 (mOct2 [3]): 2.7 fold | Inhibitory Effects (%) mOct2 10 µM Mean (mOct2 [3]; [16]): 72% | Inhibitory Effects (%) mOct2 100 µM Mean (mOct2 [3]; [17]): 97% | IC50 (mOct2 [3]; read-out: IC50, mOct2-mediated metformin uptake; control inhibitor; 350 µM metformin; 0.1-100 µM inhibitor): 2600 nM | IC50 (hOCT2 [7]): 1300 nM

C[n+]1ccc(-c2ccccc2)cc1.[I-] [MPP, 1-Methyl-4-phenylpyridinium iodide]
Fold difference in affinity (Km) of hOCT2 between MPP and metformin (hOCT2 [8]): 64 fold | Fold difference in affinity (Km) of mOct2 between MPP and metformin (mOct2 [9]): 89 fold

COc1cc2c(cc1OC)CN(CCc1ccc(NC(=O)c3cccc4c(=O)c5cccc(OC)c5[nH]c34)cc1)CC2 [Elacridar]
solubility [10]: 100 µM (≈ 56.4 µg/mL) | IC50 (hOCT2 [1]): 20000 nM | inhibition at 10 µM (hOCT2 [1]; HEK293; read-out: Inhibitory Effects (%) hOCT2 10 µM Mean): 25% | inhibition at 100 µM (hOCT2 [1]; HEK293; read-out: Inhibitory Effects (%) hOCT2 100 µM Mean): 65% | IC50, mOct2-mediated MPP uptake (mOct2 [4]; 2 nM [3H]MPP): no IC50 value could be determined; also recorded: calculation of an IC50 value was not possible | Maximum inhibition of mOct2-mediated MPP uptake (mOct2 [4]; [18]): ≤ 60% | IC50, hOCT2-mediated MPP uptake (hOCT2 [5]; 2 nM [3H]MPP): no IC50 value could be determined; also recorded: calculation of an IC50 value was not possible | Maximum inhibition of hOCT2-mediated MPP uptake (hOCT2 [5]; [18]): ≤ 60% | IC50 (mOct2 [3]): 1900 nM | inhibition at 10 µM (mOct2 [3]; [14]): 56% | inhibition at 100 µM (mOct2 [3]; [15]): 81% | Fold higher inhibitory potency to mouse than to human OCT2 (IC50 ratio) (mOct2 [3]; metformin as substrate): 10 fold

B1: mOct2 (Mus musculus) (protein)
chain: MPTVDDILEHIGEFHLFQKQTFFLLALLSGAFTPIYVGIVFLGFTPNHHCRSPGVAELSQRCGWSPAEELNYTVPGLGSAGEVSFLSQCMRYEVDWNQSTLDCVDPLSSLAANRSHLPLSPCEHGWVYDTPGSSIVTEFNLVCAHSWMLDLFQSLVNVGFFIGAVGIGYLADRFGRKFCLLVTILINAISGVLMAISPNYAWMLVFRFLQGLVSKAGWLIGYILITEFVGLGYRRTVGICYQIAFTVGLLILAGVAYALPNWRWLQFAVTLPNFCFLLYFWCIPESPRWLISQNKNAKAMKIIKHIAKKNGKSVPVSLQSLTADEDTGMKLNPSFLDLVRTPQIRKHTLILMYNWFTSSVLYQGLIMHMGLAGDNIYLDFFYSALVEFPAAFIIILTIDRIGRRYPWAVSNMVAGAACLASVFIPDDLQWLKITVACLGRMGITIAYEMVCLVNAELYPTYIRNLAVLVCSSMCDIGGIVTPFLVYRLTDIWLEFPLVVFAVVGLVAGGLVLLLPETKGKALPETIEDAEKMQRPRKKKEKRIYLQVKKAELS
Km [11]: 40 µM

Source: PMC9780857 (International Journal of Molecular Sciences, 2022)
